The record followed here is patent publication US9060979B2, “Antidepressant” (OTSUKA PHARMACEUTICAL FACTORY, INC., priority 2006, dated 2015).

Each structure is given as a SMILES string.

The assay has as its system SD rats. Nature of the assay: Defensive withdrawal test in rats under stress (time to come out of a cylinder). The note with it: for antidepressant effect: same defensive withdrawal tests in SD rats as for L-isoleucine. It counts as in vivo, rat. As to the method:
SD rats (10-week-old) were divided into two groups (10 rats in each group). One group (control group) was kept for 6 days with free access to food (standard AIN-76 diet manufactured by Nosan Corporation) and water. The other group (present invention group) was kept for 6 days with free access to food (standard AIN-76 diet containing 1% by mass of L-isoleucine) and water. Using these subject animals, depression-improving activity in rats under stress was tested according to the defensive withdrawal test method by Gutman, D. A. et al. (The Journal of Pharmacology and Experimental Therapeutics, 304 (2), 874 (2003)). That is, a rat (one from each group) was dropped, tail first, into an upright black cylinder 10 cm in diameter and 20 cm in length, and immediately covered with a lid. After 10 seconds, the cylinder was placed in an open field (100 cm long, 100 cm wide, and 45 cm high) made up of white acrylic boards, facing one corner, at a position 20 cm from the corner. […] The test was carried out under an illuminance of 200 1× in a soundproof room, and behavior of the rat was videotaped from above and observed using a monitor outside the soundproof room. Statistical processing was performed by two-sided Student's t-test.

On to `CC[C@H](C)[C@H](N)C(=O)O` [L-isoleucine], for which the “time the rat took to come out of the cylinder” value (SD rats, 10-week-old, 6 days free access to AIN-76 diet containing 1% by mass of the amino acid, observed 5 minutes, compared to control group) was “significantly shorter time to come out of the cylinder”.

Regarding `CC(C)C[C@H](N)C(=O)O` [L-leucine], the antidepressant effect result was “same antidepressant effect as that of L-isoleucine was confirmed”.

Turning to `CC(C)[C@H](N)C(=O)O` [L-valine], the antidepressant effect result was “same antidepressant effect as that of L-isoleucine was confirmed”.
